Measured values: publication PMC6934184, “Selective DNA-PKcs inhibition extends the therapeutic index of localized radiotherapy and chemotherapy” (The Journal of Clinical Investigation, 2019)

Target: T1, TNIK (Homo sapiens, UniProt Q9UKE5)
T1 construct: purchased Thermo Fisher Scientific (Life Technologies) SelectScreen
Test: SelectScreen LanthaScreen
Assay type: binding
Settings: read-out: % displacement
In short: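 Percent values come from Thermo SelectScreen profiling of NU5455, combining activity and binding assays. CSF1R was run in Z'LYTE format at Km app ATP, and CAMK1 in Adapta format with ATP listed at 10.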

T1 sequence (Q9UKE5 whole entry): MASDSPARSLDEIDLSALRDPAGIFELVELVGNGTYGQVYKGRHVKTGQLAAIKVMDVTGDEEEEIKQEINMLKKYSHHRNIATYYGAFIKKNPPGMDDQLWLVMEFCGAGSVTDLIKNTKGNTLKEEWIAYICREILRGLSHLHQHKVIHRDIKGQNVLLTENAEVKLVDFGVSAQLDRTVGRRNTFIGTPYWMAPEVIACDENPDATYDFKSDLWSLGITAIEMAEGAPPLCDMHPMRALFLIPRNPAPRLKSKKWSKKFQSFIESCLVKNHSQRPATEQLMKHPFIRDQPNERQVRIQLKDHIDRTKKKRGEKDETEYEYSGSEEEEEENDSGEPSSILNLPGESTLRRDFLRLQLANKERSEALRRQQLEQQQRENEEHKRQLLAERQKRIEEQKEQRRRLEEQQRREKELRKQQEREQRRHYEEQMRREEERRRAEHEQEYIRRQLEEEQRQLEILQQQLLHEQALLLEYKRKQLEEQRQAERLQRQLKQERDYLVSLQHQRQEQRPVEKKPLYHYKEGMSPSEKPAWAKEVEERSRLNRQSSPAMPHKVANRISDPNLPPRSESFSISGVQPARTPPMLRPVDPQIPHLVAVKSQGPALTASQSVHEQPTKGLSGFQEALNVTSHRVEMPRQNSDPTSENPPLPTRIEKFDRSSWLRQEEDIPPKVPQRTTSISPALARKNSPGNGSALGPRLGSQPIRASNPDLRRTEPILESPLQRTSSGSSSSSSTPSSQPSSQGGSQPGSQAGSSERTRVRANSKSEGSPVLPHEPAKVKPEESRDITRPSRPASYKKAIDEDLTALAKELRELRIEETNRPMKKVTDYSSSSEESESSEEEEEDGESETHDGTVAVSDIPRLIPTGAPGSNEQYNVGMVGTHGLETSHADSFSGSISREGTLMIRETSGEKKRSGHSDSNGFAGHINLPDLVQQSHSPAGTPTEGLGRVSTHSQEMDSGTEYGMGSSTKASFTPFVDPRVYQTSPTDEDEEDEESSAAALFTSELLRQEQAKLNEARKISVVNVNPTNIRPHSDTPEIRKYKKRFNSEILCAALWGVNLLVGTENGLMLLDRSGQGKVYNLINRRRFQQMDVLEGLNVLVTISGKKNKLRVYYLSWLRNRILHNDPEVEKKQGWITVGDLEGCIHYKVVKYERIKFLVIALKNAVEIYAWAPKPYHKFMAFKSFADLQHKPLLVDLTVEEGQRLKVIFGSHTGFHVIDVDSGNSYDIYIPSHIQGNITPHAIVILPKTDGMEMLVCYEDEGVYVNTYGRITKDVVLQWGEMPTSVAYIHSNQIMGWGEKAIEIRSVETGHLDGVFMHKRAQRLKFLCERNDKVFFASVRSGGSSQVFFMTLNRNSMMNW

With `CN(C(=O)CN1CCOCC1)c1ccc2sc3c(-c4cccc5c(=O)cc(N6CC7CCC(C6)O7)oc45)cccc3c2c1` [NU5455] as the compound, how does the inhibition at 1 µM read?
Its inhibition at 1 µM is 7.3%.
